Data published in ChEMBL document CHEMBL5260832, “Hepatoprotective natural triterpenoids” (Eur J Med Chem, 2018).

What was measured:
Hepatocyte [1] = assay: Hepatoprotective activity against D-GaIN-induced toxicity in mouse hepatocyte relative to control; assay type: functional, cell-based
Hepatocyte [2] = assay: Hepatoprotective activity against D-GaIN/TNFalpha-induced cell death in mouse hepatocytes at 50 uM assessed as inhibition of cell death relative to control; assay type: functional; design: scale not given: the % may be the effect or the level left
HepG2 = assay: Cytoprotective activity against t-BHP induced cell death in human HepG2 cells assessed as cell survival rate at 10 uM relative to control; assay type: functional
Hepatocyte [3] = assay: Hepatoprotective activity against D-GaIN/TNFalpha -induced cell death in mouse hepatocyte assessed as inhibition at 50 uM relative to control; assay type: functional; design: scale not given: the % may be the effect or the level left
Hepatocyte [4] = assay: Hepatoprotective activity against D-GaIN/TNFalpha-induced cell death in mouse hepatocyte at 100 uM; assay type: functional, cell-based
Hepatocyte [5] = assay: Hepatoprotective activity against D-GaIN/TNFalpha-induced cell death in mouse hepatocyte at 100 uM relative to control; assay type: functional, cell-based; settings: Mus musculus, Hepatocyte
[6] = Cytotoxicity against human HepG2 cells assessed as reduction in cell viability by SRB assay; assay type: toxicity, cell-based
Huh-7 = assay: Hepatoprotective activity against CCL4-induced mouse model in human Huh-7 cells assessed as decrease in ALT level at 100 ug/mL; assay type: functional; settings: dose 100 µg/ml
[7] = Hepatotoxicity in D-GaIN induced Wistar rat assessed as change in induction of TAT level for 10 days relative to control; assay type: toxicity; design: concentration or dose not given beside the values; settings: in vivo, 240 h, time 10 day
[8] = Hepatotoxicity in D-GaIN induced Wistar rat assessed as change in GTP leakage level for 10 days relative to control; assay type: toxicity; settings: in vivo, 240 h, time 10 day
Mus musculus [9] = organism: Mus musculus; assay: Hepatoprotective activity against D-galactosamine-induced liver injury mouse model assessed as […] leakage at 50 ug/ml; assay type: functional; settings: dose 50 µg/ml
Hepatocyte [10] = assay: Protection against CCL4-induced rat hepatocyte toxicity assessed as reduction in ALT level at 90 uM relative to control; assay type: functional; design: scale not given: the % may be the effect or the level left
Hepatocyte [11] = assay: Hepatoprotective activity against CCl4/GaIN-induced cytotoxicity in rat hepatocytes assessed as decrease in GPT level at 1.0 ug/mL relative to control; assay type: functional; design: scale not given: the % may be the effect or the level left; settings: dose 1 µg/ml
[12] = Hepatotoxicity in CCl4-induced ICR mouse model assessed as change in SOD level, po measured after 7 days; assay type: toxicity, organism-based; settings: in vivo, 168 h, time 7 day
[13] = Hepatotoxicity in CCl4-induced ICR mouse model assessed as change in GSH-PX level, po measured after 7 days; assay type: toxicity, organism-based; settings: in vivo, 168 h, time 7 day
[14] = Hepatotoxicity in DMF-induced ICR mouse model assessed as change in SOD level, po measured after 7 days; assay type: toxicity, organism-based; settings: in vivo, 168 h, time 7 day
[15] = Hepatotoxicity in CCl4-induced ICR mouse model assessed as change in CAT level, po measured after 7 days; assay type: toxicity, organism-based; settings: in vivo, 168 h, time 7 day
[16] = Hepatotoxicity in DMF-induced ICR mouse model assessed as change in GSH-PX level, po measured after 7 days; assay type: toxicity, organism-based; settings: in vivo, 168 h, time 7 day
[17] = Hepatotoxicity in DMF-induced ICR mouse model assessed as change in CAT level, po measured after 7 days; assay type: toxicity, organism-based; settings: in vivo, 168 h, time 7 day
Mus musculus [18] = organism: Mus musculus; assay: Hepatoprotective activity in mouse liver homogenate assessed as inhibition of iron/ascorbate lipid peroxidation at 0.1 mg/mL relative to control; assay type: functional; design: scale not given: the % may be the effect or the level left
Mus musculus [19] = organism: Mus musculus; assay: Hepatoprotective activity in mouse liver homogenate assessed as inhibition of iron/ascorbate lipid peroxidation at 5.0 mg/mL relative to control; assay type: functional; design: scale not given: the % may be the effect or the level left
Mus musculus [20] = organism: Mus musculus; assay: Hepatoprotective activity in CCl4-induced mouse assessed as change in SGPT level (reference value: 6.9 mmol/L); assay type: functional
L02 = assay: Protection against D-GalN-induced cell damage in human L02 cells […] assessed as reduction in cell viability […]; assay type: functional, cell-based

Compound: COc1cc([C@H]2Oc3cc([C@H]4Oc5cc(O)cc(O)c5C(=O)[C@@H]4O)ccc3O[C@@H]2CO)ccc1O [SILYBIN A]
- IC50 (Hepatocyte [1]): 38.8 µM
- Activity (Hepatocyte [2]): 61.2%
- Activity (HepG2): 52.5%
- Activity (Hepatocyte [3]): 61.2%
- IC50 (Hepatocyte [4]): 33.6 µM
- IC50 (Hepatocyte [5]): 29.9 µM
- EC50 [6]: 75.7 µM

Compound: CC1(C)CC[C@]2(CO)CC[C@]3(C)C(=CC[C@@H]4[C@@]5(C)CC[C@H](O)C(C)(C)[C@@H]5CC[C@]43C)[C@@H]2C1 [ERYTHRODIOL]
- Activity (Huh-7): 40.2 U/ml

Compound: CC(=O)C[C@@H](C)[C@H]1CC[C@@]2(C)[C@@H]3C(=O)C=C4[C@@H](CC[C@@H](O)C4(C)C)[C@]3(C)CC[C@]12C
- Activity (HepG2): 56.9%

Compound: CC1(C)CC[C@]2(C)CC[C@]3(C)C(=CC[C@@H]4[C@@]5(C)CC[C@@H](O)C(C)(C)[C@@H]5CC[C@]43C)[C@@H]2C1
- Activity [7]: 70.2%
- Activity [8]: 5.3%
- Activity (Mus musculus [9]): 60.8%

Compound: C[C@@H]1O[C@@H](O[C@H]2[C@H](O[C@H]3CC[C@]4(C)[C@H]5CC=C6[C@@H]7CC(C)(C)CC[C@]7(C(=O)O[C@@H]7O[C@H](CO)[C@@H](O)[C@H](O)[C@H]7O[C@@H]7O[C@H](CO)[C@@H](O)[C@H](O)[C@H]7O)[C@H](O)C[C@@]6(C)[C@]5(C)CC[C@H]4C3(C)C)O[C@H](CO)[C@@H](O)[C@@H]2O)[C@H](O)[C@H](O)[C@H]1O
- Activity (Hepatocyte [10]): 79%

Compound: CC1(C)CC[C@]2(C(=O)O[C@@H]3O[C@H](CO)[C@@H](O)[C@H](O)[C@H]3O)CC[C@]3(C)C(=CC[C@@H]4[C@@]5(C)CC[C@H](O[C@@H]6O[C@H](C(=O)O)[C@@H](O)[C@H](O)[C@H]6O[C@@H]6OC[C@H](O)[C@H](O)[C@H]6O)C(C)(C)[C@@H]5CC[C@]43C)[C@@H]2C1
- Activity (Hepatocyte [11]): 28%

Compound: C=C(C)[C@@H]1CC[C@]2(C(=O)O[C@@H]3O[C@H](CO)[C@@H](O)[C@H](O)[C@H]3O)CC[C@]3(C)[C@H](CC[C@@H]4[C@@]5(C)C[C@@H](O)[C@H](O)C(C)(C)[C@@H]5CC[C@]43C)[C@@H]12
- Activity (Hepatocyte [3]): 37.6%

Compound: C[C@@H]1O[C@@H](O[C@H]2[C@H](OC(=O)[C@]34CCC(C)(C)C[C@H]3C3=CC[C@@H]5[C@@]6(C(=O)O)CC[C@H](O)[C@@](C)(C(=O)O)[C@@H]6CC[C@@]5(C)[C@]3(C)CC4)O[C@H](C)[C@H](O)[C@@H]2O)[C@H](O)[C@H](O)[C@H]1O[C@@H]1O[C@H](CO)[C@@H](O[C@@H]2OC[C@@H](O)[C@H](O)[C@H]2O)[C@H](O)[C@H]1O
- Activity [12]: 193.68 U/mg
- Activity [13]: 67.77 U/mg
- Activity [14]: 196.16 U/mg
- Activity [15]: 85.63 U/mg
- Activity [16]: 59.57 U/mg
- Activity [17]: 81.85 U/mg

Compound: CC1(C)CC[C@]2(C(=O)O)CC[C@]3(C)C(=CC[C@@H]4[C@@]5(C)CC[C@H](O)C(C)(C)[C@@H]5CC[C@]43C)[C@@H]2C1 [OLEANOLIC_ACID]
- Activity (Mus musculus [18]): 13.7%
- Activity (Mus musculus [19]): 38.8%
- Activity (Mus musculus [20]): 3.64 mmol/L

Compound: C[C@@H]1O[C@@H](O[C@H]2[C@H](O[C@H]3CC[C@]4(C)[C@H]5CC=C6[C@@H]7CC(C)(C)CC[C@]7(C(=O)O[C@@H]7O[C@H](CO)[C@@H](O[C@@H]8O[C@H](CO)[C@@H](O)[C@H](O)[C@H]8O)[C@H](O)[C@H]7O[C@@H]7O[C@H](CO)[C@@H](O)[C@H](O)[C@H]7O)[C@H](O)C[C@@]6(C)[C@]5(C)CC[C@H]4C3(C)C)O[C@H](CO)[C@@H](O)[C@@H]2O)[C@H](O)[C@H](O)[C@H]1O
- Activity (Hepatocyte [10]): 4%

Compound: CC(=O)O[C@H]1[C@@H]2O[C@@]3(C(C)(C)O)CC[C@](C)(O3)C2[C@@]2(CO)CC[C@@]34C[C@@]35CC[C@H](O)C(C)(C)C5CC[C@H]4[C@]12C (stereo partly specified)
- EC50 (L02): 55.9 µM
